A short description of the data set: solvent given as SMILES.

This is an account of results in the Deep4Chem optical property database.

Compound `CCCCCCCCc1ccc(-c2c3cc(-c4cc(CCCCCCCC)c(-c5ccc(-c6sc(/C=C7\SC(=S)N(CC)C7=O)cc6CCCCCCCC)s5)s4)sc3c(-c3ccc(CCCCCCCC)s3)c3cc(-c4cc(CCCCCCCC)c(-c5ccc(-c6sc(/C=C7\SC(=S)N(CC)C7=O)cc6CCCCCCCC)s5)s4)sc23)s1` displayed an emission maximum (in ClC(Cl)Cl) of 670 nm.

Turning to `CCn1c2ccccc2c2cc(/C=C/c3cccc[n+]3CCCS(=O)(=O)[O-])ccc21`, the emission maximum (in C1CCOC1) is recorded as 559 nm, the emission maximum (in CC#N) came out at 565 nm, the emission maximum (in CC(C)=O) came to 565 nm and the emission maximum (in Cc1ccccc1) is reported as 590 nm.

`COc1ccc2c(c1)CCc1c(-c3ccccc3)c3n(c1-2)[B-](F)(F)[N+]1=C2C(=C(c4ccccc4)C1=N3)CCc1ccccc12` returned an emission maximum (in ClC(Cl)Cl) of 734 nm.

For `Cc1cc(C)c(B(c2ccc(N3c4ccccc4C(C)(C)c4ccccc43)cc2)c2c(C)cc(C)cc2C)c(C)c1`, the emission maximum reads like this: (in C1CCCCC1) 442 nm; (in C1CCOC1) 530 nm; (in CN(C)C=O) 578.72 nm; (in Cc1ccccc1) 484 nm; (in ClCCl) 540.77 nm.

Consider `CC(=O)c1c2c(cc3cc(N(C)C)ccc13)CCC2`, for which the emission maximum was 445 nm (in C1CCCCC1); 505 nm (in C1CCOC1); 495 nm (in C1COCCO1); 545 nm (in CC#N); 605 nm (in CCO); 558 nm (in CS(C)=O). For the same compound, the emission maximum was determined as 481 nm (in Cc1ccccc1), 511 nm (in ClC(Cl)Cl) and 509 nm (in ClCCl).

As for `CC1(C)Nc2cc(Cl)ccc2-c2[nH]c3ccccc3c(=O)c21`, the emission maximum (in C1CCOC1) amounted to 474 nm; the emission maximum (in CC#N) is on record as 496 nm; the emission maximum (in CCCCO) turned out to be 505 nm; the emission maximum (in CCCO) stood at 505 nm; the emission maximum (in CCO) came to 506 nm; the emission maximum (in CCOC(C)=O) was 482 nm. The emission maximum reads like this: (in CN(C)C=O) 493 nm; (in CO) 513 nm; (in CS(C)=O) 494 nm; (in Cc1ccccc1) 460 nm; (in ClC(Cl)(Cl)Cl) 451 nm; (in ClCCl) 473 nm. In addition, the emission maximum reads like this: (in O) 536 nm; (in c1ccccc1) 462 nm.

`CC1(C)C(/C=C/C=C/C=C/C=C2\N(CCCCS(=O)(=O)[O-])c3ccc4ccccc4c3C2(C)C)=[N+](CCCCS(=O)(=O)[O-])c2ccc3ccccc3c21` gave an emission maximum (in O) of 820 nm.

As to `c1csc(-c2ccc(-c3cccs3)c3nsnc23)c1`, the emission maximum (in ClC(Cl)Cl) amounted to 565 nm.

`FC(F)(F)c1ccc(/C=C/c2ccc(-c3nnc(-c4ccc(-c5cc6ccccc6s5)cc4)o3)cc2)cc1`: the emission maximum (in CC#N) is 388 nm; the emission maximum (in CC(C)=O) was found to be 390 nm; the emission maximum (in CCCCCCCC) worked out at 387 nm; the emission maximum (in CCCCCCCCCCO) is 395 nm; the emission maximum (in CCCCCCCCO) is recorded as 394 nm; the emission maximum (in CCCCCO) is given as 393 nm. The emission maximum was 391 nm (in CCCO), 416 nm (in CN(C)C=O), 389 nm (in CO) and 397 nm (in CS(C)=O).

`COc1ccc(-c2cc3c(cc2OC)-c2c(c4c(c5c2-c2cc(OC)c(-c6ccc(OC)cc6)cc2C5)C(=O)N(CCC(C)C)C4=O)C3)cc1`: the emission maximum (in C1CCOC1) was 493 nm.

`CCn1c(=O)nc2n(C)c3cc(C)ccc3nc-2c1=O`: the emission maximum is recorded as 527 nm (in C1COCCO1), 530 nm (in CC#N), 532 nm (in CO) and 531 nm (in ClCCCl).

Turning to `COc1cc(/C=C/c2cc(OC)c(-c3nc(-c4ccccc4)c(-c4ccccc4)[nH]3)cc2OC)c(OC)cc1/C=C/c1cc(OC)c(-c2nc(-c3ccccc3)c(-c3ccccc3)[nH]2)cc1OC`, the emission maximum is, setting by setting: (in C1CCOC1) 510 nm; (in CC#N) 515 nm; (in CN(C)C=O) 512 nm; (in Cc1ccccc1) 502 nm.

Take `CC1(C)c2ccccc2N(c2ccc(-c3ccc4c(c3)C(=O)c3ccc(-c5ccc(N6c7ccccc7C(C)(C)c7ccccc76)cc5)cc3C4=O)cc2)c2ccccc21`: the emission maximum by setting is: (in Cc1ccccc1) 609 nm; (in c1ccc2c(c1)c1ccccc1n2-c1ccc(-c2ccc(-n3c4ccccc4c4ccccc43)cc2)cc1) 564 nm.

In turn, `c1cc2ccc3ccc4cc3c2cc1CCCCCCc1ccc2ccc3ccc-4cc3c2c1` came in with an emission maximum (in Cc1ccccc1) of 376 nm.

As to `CC(C)c1cc(C(C)C)c(B2c3ccccc3Oc3cc(N4c5ccccc5C(C)(C)c5ccccc54)ccc32)c(C(C)C)c1`, the emission maximum (in Cc1ccccc1) is listed as 475 nm.

On to `Cc1cc2cc(C)c3c4ccccc4[nH]c3c2o1`, for which, where the note is “in ClCCl”, the emission maximum is 338 nm.

Turning to `N#Cc1ccc(-c2ccc3c(c2)c2cc(-c4ccc(C#N)cc4)ccc2c2c3nc(-c3ccc(N(c4ccccc4)c4ccccc4)cc3)n2-c2ccccc2)cc1`, the emission maximum by setting is: (in C1CCOC1) 449.94 nm; (in CC#N) 479.9 nm; (in CCCCCC) 419.62 nm; (in CCOCC) 439.6 nm.

In the case of `CCOC(=O)c1c(-c2cc3cc4c(cc3oc2=O)OC(C)(C)CC4)nn(-c2cccc(C)c2)c1C(=O)OCC`, the emission maximum (in ClCCl) is 428 nm.

For `CC1=CC(/C=C/c2ccc([N+](C)(C)C)cc2)=[N+]2C1=C(c1ccc(C#CCO[C@@H]3O[C@H](CO)[C@@H](O)C(O)[C@H]3O)cc1)c1c(C)cc(/C=C/c3ccc([N+](C)(C)C)cc3)n1[B-]2(F)F` (some centres undefined), for the setting “in CC#N”, the emission maximum was determined as 629 nm.

Consider `CC1(C)c2ccccc2N(c2ccc3c(c2)c2cc(N4c5ccccc5C(C)(C)c5ccccc54)cc4c5ccccc5n3c42)c2ccccc21`, for which the emission maximum worked out at 427.57 nm (in C1CCCCC1), 481.94 nm (in C1CCOC1) and 449 nm (in Cc1ccccc1).

On to `CN(C)CCCN1c2ccccc2Sc2ccc(C(F)(F)F)cc21`, for which the emission maximum is 470 nm (in CC#N), 463 nm (in CO) and 475 nm (in O).

On to `CCCCCCCCCCCCOc1cc2cc(N(C)C)ccc2cc1C=C(C#N)C#N`, for which the emission maximum (in C1CCOC1) is listed as 576 nm; the emission maximum (in CC#N) is reported as 613 nm; the emission maximum (in CCCCCC) amounted to 653 nm; the emission maximum (in CCO) worked out at 610 nm; the emission maximum (in CCOC(C)=O) worked out at 571 nm; the emission maximum (in CS(C)=O) stood at 631 nm. The emission maximum runs as follows: (in ClCCl) 578 nm; (in O) 674 nm.

`F[B-]1(F)n2c(-c3ccccc3)c3ccc4ccccc4c3c2N=C2c3c(ccc4ccccc34)C(c3ccccc3)=[N+]21` registered an emission maximum (in ClCCl) of 753 nm.

Under “in CC1CCCO1”, `Cn1c2nc(=O)[nH]c(=O)c-2nc2ccccc21` yielded an emission maximum of 489 nm.

Consider `Cc1cc(C)c(B(c2cc3c4c(c(B(c5c(C)cc(C)cc5C)c5c(C)cc(C)cc5C)cc5c4c2CCC5)CCC3)c2c(C)cc(C)cc2C)c(C)c1`, for which the emission maximum (in C1CCOC1) is listed as 464.54 nm, the emission maximum (in CC#N) is listed as 465.9 nm and the emission maximum (in CCCCCC) is 456 nm.

Turning to `CC(=O)c1ccc2ccc3c(NCCC(=O)NCCCCCCc4nc5c(=O)[nH]c(N)nc5n4[C@H]4C[C@H](O)[C@@H](CO)O4)ccc4ccc1c2c43`, the emission maximum by setting is: (in C1CCOC1) 523 nm; (in CC#N) 546 nm; (in CC(C)O) 557 nm; (in CCO) 559 nm; (in CN(C)C=O) 543 nm; (in CO) 565 nm. Moreover, the emission maximum by setting is: (in CS(C)=O) 551 nm; (in O) 573 nm; (in OCC(O)CO) 567 nm.

As to `c1ccc(-c2cc(-c3ccccc3)cc(-c3ccc4c(c3)C3(c5ccccc5-4)c4ccccc4-c4c3c3c5ccccc5c(-c5cc(-c6ccccc6)cc(-c6ccccc6)c5)cc3c3ccccc43)c2)cc1` (centres undefined), where the note is “in C1CCOC1”, the emission maximum was determined as 440 nm.

Take `COc1ccc2c(c1)nc(-c1ccccc1)n2-c1ccccc1`: the emission maximum (in CC#N) amounted to 391 nm.

`COc1ccc(N(c2ccc(C=C(c3ccccc3)c3ccccc3)cc2)c2ccc(C=C(c3ccccc3)c3ccccc3)cc2)cc1` returned an emission maximum (in Cc1ccccc1) of 477 nm.

As to `CCCCCCC1(CCCCCC)c2cc(-c3ccc(-c4ccc(-c5ccc(-c6ccc7c(c6)C(CCCCCC)(CCCCCC)c6cc(-n8c9ccccc9c9ccccc98)ccc6-7)s5)c5nsnc45)s3)ccc2-c2ccc(-n3c4ccccc4c4ccccc43)cc21`, under “in ClCCl”, the emission maximum is recorded as 611 nm.

On to `c1ccc(-c2nc3c(ccc4[nH]ccc43)o2)cc1`, for which the emission maximum reads like this: (in C1CCCCC1) 372 nm; (in C1COCCO1) 409 nm; (in CC#N) 427 nm; (in CO) 437 nm; (in Cc1ccccc1) 390 nm; (in O) 459 nm.

`C/C=C/c1cccc(OC)c1` gave an emission maximum (in CC#N) of 327 nm and an emission maximum (in CCCCCC) of 325 nm.

`COc1ccc(-c2n[n+]3c(s2)N=C(c2ccccc2)O[B-]3(F)F)cc1` gave an emission maximum (in Cc1ccccc1) of 436 nm.

With `CNc1cccc2c1C(=O)c1ccccc1C2=O`, the emission maximum is 565 nm (in C1CCC2CCCCC2C1); 563 nm (in C1CCCCC1); 565 nm (in CC1CCCCC1); 617 nm (in CC#N); 562 nm (in CCC(C)CC); 560 nm (in CCCCCC). The compound further had an emission maximum (in CCOC(C)=O) of 600 nm.

Where the note is “in CS(C)=O”, `O=[N+]([O-])c1ccc(N/C=C/C=[NH+]c2ccc([N+](=O)[O-])cc2)cc1` came in with an emission maximum of 508 nm.

As to `Clc1ccccc1N1c2sc3ccccc3c2Sc2c1sc1ccccc21`, the emission maximum (in ClCCl) was 541 nm.

For `COCCN1C(=O)/C(=C/c2cccc(N(C)C)c2)N=C1C`, the emission maximum (in C1CCOC1) was 563 nm, the emission maximum (in CC#N) is on record as 632 nm and the emission maximum (in CCCCCC) came out at 491 nm.
